Reference: patent US8357634B2, “N-alkoxycarboxamides and their use as microbiocides” (Syngenta Crop Protection LLC, priority 2009, dated 2013)

Assays:
[1] = system: Botrvtis cinerea; assay: Example B-1: Action against Botrytis cinerea, fungal growth assay; format: cell-based; details: 0.002% active ingredient, PDB broth, 24° C., photometric after 3-4 days
Experimental: (§1) Action against Botrvtis cinerea—fungal growth assay Conidia of the fungus from cryogenic storage was directly mixed into nutrient broth (PDB potato dextrose broth). After placing a (DMSO) solution of the test compounds (0.002% active ingredient) into a microtiter plate (96-well format) the nutrient broth containing the fungal spores was added. The test plates were incubated at 24° C. and the inhibition of growth was measured photometrically after 3-4 days. The activity of a compound was expressed as fungal growth inhibition (0=no growth inhibition, ratings of 80% to 99% mean good to very good inhibition, 100%=complete inhibition).

[2] = system: Mycosphaerella arachidis (Cercospora arachidicola); assay: Example B-2: Action against Mycosphaerella arachidis, fungal growth assay; format: cell-based; details: 0.002% active ingredient, PDB broth, 24° C., photometric after 6-7 days
Experimental: as §1, with “Action Against Mycosphaerella arachidis (Early Leaf Spot of Groundnut; Cercospora arachidicola [fanamorph])—Fungal Growth Assay” for “Action against Botrvtis cinerea—fungal growth assay”, “storage were” for “storage was”, “after 6-7” for “after 3-4”

[3] = system: Septoria tritici; assay: Example B-3: Action against Septoria tritici, fungal growth assay; format: cell-based; details: Zymoseptoria tritici; 0.002% active ingredient; PDB broth, 24° C., photometric after 72 hrs
Experimental: as §1, with “Action Against Septoria tritici—Fungal Growth Assay” for “Action against Botrvtis cinerea—fungal growth assay”, “storage were” for “storage was”, “was determined” for “was measured”, “after 72 hrs.” for “after 3-4 days.”

[4] = system: Erysiphe graminis f. sp. tritici; assay: Example B-5: Action against Erysiphe graminis f. sp. tritici (wheat powdery mildew), wheat leaf segments; format: in vivo; details: Blumeria graminis, foliar, 168 h, 0.02% active ingredient, 7 days after inoculation, read-out: preventive fungicidal activity (inhibition)
Experimental: (§2) Action Against Erysiphe graminis f. sp. tritici (Wheat Powdery Mildew) Wheat leaf segments were placed on agar in multiwell plates (24-well format) and sprayed with test solutions (0.02% active ingredient). After drying, the leaf disks were inoculated with a spore suspension of the fungus. After appropriate incubation the activity of a compound was assessed 7 days after inoculation as preventive fungicidal activity.

[5] = system: Puccinia recondita; assay: Example B-6: Protective action against Puccinia recondita (brown rust) on wheat leaf segments; format: in vivo; details: foliar, 192 h, 0.02% active ingredient, 8 days after inoculation, read-out: preventive fungicidal activity (inhibition)
Experimental: as §2, with “Protective Action” for “Action”, “Puccinia recondita (Brown Rust) on Wheat” for “Erysiphe graminis f. sp. tritici (Wheat Powdery Mildew)”, “8” for “7”

[6] = system: Puccinia recondita; assay: Example B-7: Curative action against Puccinia recondita (brown rust) on wheat leaf segments; format: in vivo; details: 0.02% active ingredient sprayed one day after inoculation, 8 days after inoculation; for inhibition at 0.02 % strength: Puccinia recondita, foliar, read-out: curative fungicidal activity (inhibition)
Experimental: Curative Action Against Puccinia recondita (Brown Rust) on Wheat Wheat leaf segments were placed on agar in multiwell plates (24-well format) and inoculated with a spore suspension of the fungus. One day after inoculation the leaf segments were sprayed with test solutions (0.02% active ingredient). After appropriate incubation the activity of a compound was assessed 8 days after inoculation as curative fungicidal activity.

[7] = system: Pyrenophora teres; assay: Example B-8: Action against Pyrenophora teres (net blotch) on barley leaf segments; format: in vivo; details: foliar, 96 h, 0.02% active ingredient, 4 days after inoculation, read-out: preventive fungicidal activity (inhibition)
Experimental: as §2, with “Pyrenophora teres (Net Blotch) on Barley Barley” for “Erysiphe graminis f. sp. tritici (Wheat Powdery Mildew) Wheat”, “4” for “7”

Row | Structure (SMILES) | inhibition at 0.002 % strength [1] | inhibition at 0.002 % strength [2] | inhibition at 0.002 % strength [3] | inhibition at 0.02 % strength [4] | inhibition at 0.02 % strength [5] | inhibition at 0.02 % strength [6] | inhibition at 0.02 % strength [7] | melting point | curative fungicidal activity (inhibition) [6]
1 | CON(C(=O)c1cn(C)nc1C(F)F)C(C)c1cccc(I)c1 (centres unmarked) [Compound 1.014, 3-Difluoromethyl-1-methyl-1H-pyrazole-4-carboxylic acid [1-(3-iodo-phenyl)-ethyl]-methoxy-amide] | ≥ 80% | ≥ 80% | ≥ 80% | ≥ 80% | ≥ 80% | ≥ 80% | ≥ 80% | 136 to 138 °C | –
2 | CON(C(=O)c1cn(C)nc1C(F)F)C(C)c1cccc(-c2ccc(Cl)c(Cl)c2)c1 (centres unmarked) [Compound 1.020, 3-difluoromethyl-1-methyl-1H-pyrazole-4-carboxylic acid [1-(3′,4′-dichloro-biphenyl-3-yl)-ethyl]-methoxy-amide] | ≥ 80% | ≥ 80% | ≥ 80% | – | ≥ 80% | – | ≥ 80% | 162 to 164 °C | –
3 | CON(C(=O)c1cn(C)nc1C(F)F)C(C)c1ccc(I)cc1 (centres unmarked) [Compound 1.003, 3-difluoromethyl-1-methyl-1H-pyrazole-4-carboxylic acid [1-(4-iodo-phenyl)-ethyl]-methoxy-amide] | – | ≥ 80% | ≥ 80% | ≥ 80% | ≥ 80% | – | ≥ 80% | 72 to 74 °C | –
4 | CON(C(=O)c1cn(C)nc1C(F)F)C(CF)c1ccc(Cl)cc1 (centres unmarked) [Compound 1.107] | – | – | – | – | – | – | – | – | 50%
5 | CON(Cc1ccc(Cl)cc1Cl)C(=O)c1cn(C)nc1C(F)F [Compound 1.091, 3-difluoromethyl-1-methyl-1H-pyrazole-4-carboxylic acid (2,4-dichlorobenzyl)-methoxy-amide] | – | ≥ 80% | ≥ 80% | – | ≥ 80% | 50% | ≥ 80% | – | –
